Consider four compounds from US9695155B2, “Herbicidal substituted pyrimidinyloxy benzene compounds” (E. I. DU PONT DE NEMOURS AND COMPANY, priority 2013, dated 2017).

One assay has as its system smartweed. In words: Test E postemergence. It counts as in vivo, ladysthumb smartweed. The text has this:
Seeds of plant species selected from corn (Zea mays), soybean (Glycine max), velvetleaf (Abutilon theophrasti), lambsquarters (Chenopodium album), wild poinsettia (Euphorbia heterophylla), palmer pigweed (Amaranthus palmeri), waterhemp (common waterhemp, Amaranthus rudis), surinam grass (Brachiaria decumbens), large (Lg) crabgrass (Digitaria sanguinalis), Brazilian crabgrass (Digitaria horizontalis), fall panicum (Panicum dichotomiflorum), giant foxtail (Setaria faberii), green foxtail (Setaria viridis), goosegrass (Eleusine indica), johnsongrass (Sorghum halepense), ragweed (common ragweed, Ambrosia elatior), barnyardgrass (Echinochloa crus-galli), sandbur (southern sandbur, Cenchrus echinatus), arrowleaf sida (Sida rhombifolia), Italian ryegrass (Lolium multiflorum), dayflower (Virginia (VA) dayflower, Commelina virginica), field bindweed (Convolvulus arvensis), morningglory (Ipomoea coccinea), nightshade (eastern black nightshade, Solanum ptycanthum), kochia (Kochia scoparia), yellow nutsedge (Cyperus esculentus), cocklebur (common cocklebur, Xanthium strumarium), smartweed (ladysthumb smartweed, and hairy beggarticks (Bidens pilosa), were planted into a silt loam soil and treated preemergence with test chemicals formulated in a non-phytotoxic solvent mixture which included a surfactant.
At the same time, plants from these crop and weed species and also horseweed (Canada horseweed, Conyza canadensis), waterhemp_RES1, (ALS & Triazine resistant common waterhemp, Amaranthus rudis), and waterhemp_RES2, (ALS & HPPD resistant common waterhemp, Amaranthus rudis) were planted in pots containing Redi-Earth® planting medium (Scotts Company, 14111 Scottslawn Road, Marysville, Ohio 43041) comprising spaghnum peat moss, vermiculite, wetting agent and starter nutrients were treated with postemergence applications of test chemicals formulated in the same manner. Plants ranged in height from 2 to 18 cm for postemergence treatments (1- to 4-leaf stage). Treated plants and controls were maintained in a greenhouse for 14 to 21 days, after which time all species were compared to controls and visually evaluated. Plant response ratings, summarized in Table E, are based on a scale of 0 to 100 where 0 is no effect and 100 is complete control. A dash (-) response means no test result.

Assay [1] relates to surinam grass. In words: Test C postemergence. The format is in vivo, Brachiaria decumbens. As to conditions: for Plant response rating (0 to 100), Surinam Grass: postemergence; for Plant response rating, Surinam Grass: Postemergence, scale 0 to 100 (0 no effect, 100 complete control). The text has this: (§1) Seeds of plant species selected from blackgrass (Alopecurus myosuroides), Italian ryegrass (Lolium multiflorum), wheat, winter (winter wheat, Triticum aestivum), galium (catchweed bedstraw, Galium aparine), corn (Zea mays), large (Lg) crabgrass (Digitaria sanguinalis), giant foxtail (Setaria faberii), johnsongrass (Sorghum halepense), lambsquarters (Chenopodium album), morningglory (Ipomoea coccinea), yellow nutsedge (Cyperus esculentus), pigweed (Amaranthus retroflexus), ragweed (common ragweed, Ambrosia elatior), soybean (Glycine max), barnyardgrass (Echinochloa crus-galli), oilseed rape (Brassica napus), waterhemp (common waterhemp, Amaranthus rudis), kochia (Kochia scoparia), wild oat (Avena fatua), surinam grass (Brachiaria decumbens), foxtail, green (green foxtail, Setaria viridis), goosegrass (Eleusine indica), bromegrass, downy (downy bromegrass, Bromus tectorum), nightshade (eastern black nightshade, Solanum ptycanthum), cocklebur (common cocklebur, Xanthium strumarium), cupgrass, woolly (woolly cupgrass, Eriochloa villosa), bermudagrass (Cynodon dactylon), sunflower, (common oilseed sunflower, Helianthus annuus), Russian thistle (Salsola kali), and velvetleaf (Abutilon theophrasti) were planted into a blend of loam soil and sand and treated preemergence with test chemicals formulated in a non-phytotoxic solvent mixture which included a surfactant.
(§2) At the same time, plants selected from these crop and weed species and also barley, winter (winter barley, Hordeum vulgare), windgrass (Apera spica-venti), chickweed (common chickweed, Stellaria media), deadnettle (henbit deadnettle, Lamium amplexicaule), and canarygrass (littleseed canarygrass, Phalaris minor) were planted in pots containing Redi-Earth® planting medium (Scotts Company, 14111 Scottslawn Road, Marysville, Ohio 43041) comprising spaghnum peat moss, vermiculite, wetting agent and starter nutrients and treated with postemergence applications of test chemicals formulated in the same manner. Plants ranged in height from 2 to 18 cm (1- to 4-leaf stage) for postemergence treatments. Treated plants and controls were maintained in a greenhouse for 13 to 15 days, after which time all species were compared to controls and visually evaluated. Plant response ratings, summarized in Table C, are based on a scale of 0 to 100 where 0 is no effect and 100 is complete control. A dash (-) response means no test result.

In assay [2] the test system is goosegrass. In words: Test C postemergence. As to conditions: for Plant response rating (0 to 100), Goosegrass: postemergence; for Plant response rating, Goosegrass: Postemergence, scale 0 to 100 (0 no effect, 100 complete control). It counts as in vivo, Eleusine indica.
From the text: as §1, §2

Another assay has as its system canarygrass. In words: Test C postemergence. It counts as in vivo, Phalaris minor. As to conditions: for Plant response rating (0 to 100), Canarygrass: postemergence; for Plant response rating, Canarygrass: Postemergence, scale 0 to 100 (0 no effect, 100 complete control).
From the text: as §1, §2

Assay [3] has as its system cupgrass, woolly. In words: Test C postemergence. The following applies: for Plant response rating (0 to 100), Cupgrass, Woolly: postemergence; for Plant response rating, Cupgrass, Woolly: Postemergence, scale 0 to 100 (0 no effect, 100 complete control). It counts as in vivo, Eriochloa villosa.
From the text: as §1, §2

For a further assay, the system named is barley, winter. In words: Test C postemergence. It counts as in vivo, Hordeum vulgare. The following applies: for Plant response rating (0 to 100), Barley: postemergence; for Plant response rating, Barley: Postemergence, scale 0 to 100 (0 no effect, 100 complete control).
From the text: as §1, §2

A further assay has as its system sunflower. The experiment in a line: Test C preemergence. As to conditions: for Sunflower plant response rating: preemergence, scale 0 (no effect) to 100 (complete control). It counts as in vivo, Helianthus annuus.
From the text: as §1, §2

Another assay relates to bromegrass, downy. In words: Test C preemergence. The format is in vivo, Bromus tectorum. As to conditions: for Bromegrass, Downy plant response rating: preemergence, scale 0 (no effect) to 100 (complete control).
From the text: as §1, §2

The test system of a further assay is cocklebur. The experiment in a line: Test C preemergence. The format is in vivo, Xanthium strumarium. As to conditions: preemergence, scale 0 (no effect) to 100 (complete control).
From the text: as §1, §2

Assay [4] has as its system surinam grass. The experiment in a line: Test C preemergence. As to conditions: for Surinam Grass plant response rating: preemergence, scale 0 (no effect) to 100 (complete control). It counts as in vivo, Brachiaria decumbens.
From the text: as §1, §2

The subject of a further assay is nightshade. The experiment in a line: Test C preemergence. The format is in vivo, Solanum ptycanthum. As to conditions: preemergence, scale 0 (no effect) to 100 (complete control).
From the text: as §1, §2

For assay [5], the system named is cupgrass, woolly. The experiment in a line: Test C preemergence. The format is in vivo, Eriochloa villosa. As to conditions: for Cupgrass, Woolly plant response rating: preemergence, scale 0 (no effect) to 100 (complete control).
From the text: as §1, §2

Assay [6] deals with goosegrass. In words: Test C preemergence. The format is in vivo, Eleusine indica. The following applies: for Goosegrass plant response rating: preemergence, scale 0 (no effect) to 100 (complete control).
From the text: as §1, §2

The mark [7] stands for this setting: Postemergence, 62 g ai/ha, scale 0 to 100.
[8] abbreviates: Postemergence, 125 g ai/ha, scale 0 to 100.
[9] abbreviates: Postemergence, 250 g ai/ha, scale 0 to 100.
Setting [10] is: postemergence, 16 g ai/ha, scale 0 to 100, 0 no effect, 100 complete control.
The mark [11] stands for this setting: Preemergence, 31 g ai/ha, scale 0 to 100, 0 no effect, 100 complete control.

On to `N#Cc1cccc(Oc2ncc(Br)cn2)c1-n1cc(C(F)(F)F)cn1` [Compound 59, 3-[(5-bromo-2-pyrimidinyl)oxy]-2-[4-(trifluoromethyl)-1H-pyrazol-1-yl]benzonitrile], for which the “Plant response rating, Smartweed” value stood at 80 in the assay on smartweed (setting [7]), 100 in the assay with smartweed (setting [8]), 100 with smartweed (setting [9]) and 55 in the assay with smartweed (setting [10]).
Consider `N#Cc1cccc(Oc2ncc(Cl)cn2)c1-n1cc(C(F)(F)F)cn1` [Compound 58, 3-[(5-chloro-2-pyrimidinyl)oxy]-2-[4-(trifluoromethyl)-1H-pyrazol-1-yl]benzonitrile], for which the “Plant response rating, Smartweed” value in the assay on smartweed (Postemergence, 31 g ai/ha, scale 0 to 100) is 65; in the assay with smartweed (setting [7]), 85; in the assay on smartweed (setting [8]), 100; in the assay with smartweed (setting [9]), 100; in the assay with smartweed (setting [10]), 50.
Consider `Fc1cnc(Oc2ccccc2-n2cc(Br)cn2)nc1` [Compound 10, 2-[2-(4-bromo-1H-pyrazol-1-yl)phenoxy]-5-fluoropyrimidine], for which the “Plant response rating (0 to 100), Surinam Grass” value in the assay with surinam grass [1] (125 g ai/ha) and in the assay on surinam grass [1] (250 g ai/ha) was 15 in each case. For the same compound, the “Plant response rating, Surinam Grass” value in the assay on surinam grass [1] (31 g ai/ha, 13 to 15 days) is on record as 0; in the assay on surinam grass [1] (62 g ai/ha), 10. Also, the “Plant response rating (0 to 100), Goosegrass” value in the assay with goosegrass [2] (125 g ai/ha) came to 5; in the assay on goosegrass [2] (250 g ai/ha), 10. Moreover, the “Plant response rating, Goosegrass” value is given as 0 in the assay with goosegrass [2] (31 g ai/ha, 13 to 15 days) and 5 in the assay on goosegrass [2] (62 g ai/ha). For the same compound, the “Plant response rating (0 to 100), Canarygrass” value with canarygrass (125 g ai/ha) came to 25; with canarygrass (250 g ai/ha) it was 40. In addition, the “Plant response rating, Canarygrass” value is reported as 0 in the assay with canarygrass (31 g ai/ha, 13 to 15 days) and 0 in the assay on canarygrass (62 g ai/ha). The “Plant response rating (0 to 100), Cupgrass, Woolly” value in the assay with cupgrass, woolly [3] (125 g ai/ha) is 5; in the assay on cupgrass, woolly [3] (250 g ai/ha) it was 15. Also, the “Plant response rating, Cupgrass, Woolly” value with cupgrass, woolly [3] (31 g ai/ha, 13 to 15 days) is given as 0; with cupgrass, woolly [3] (62 g ai/ha), 5. In addition, the “Plant response rating (0 to 100), Barley” value with barley, winter (125 g ai/ha) is listed as 5; in the assay with barley, winter (250 g ai/ha), 10. Moreover, the “Plant response rating, Barley” value with barley, winter (31 g ai/ha, 13 to 15 days) worked out at 0; in the assay on barley, winter (62 g ai/ha), 5.
On to `FC(F)(F)c1cnn(-c2ccccc2Oc2ncc(Br)cn2)c1` [Compound 18, 5-bromo-2-[2-[4-(trifluoromethyl)-1H-pyrazol-1-yl]phenoxy]pyrimidine], for which the figures for the “Sunflower plant response rating” value in the assay with sunflower (62 g ai/ha), in the assay with sunflower (125 g ai/ha) and in the assay with sunflower (250 g ai/ha) were 0, 0 and 40, respectively. For the same compound, the “Plant response rating, Sunflower” value in the assay on sunflower (setting [11]) came out at 0. The “Bromegrass, Downy plant response rating” value in the assay with bromegrass, downy (62 g ai/ha) is listed as 10; with bromegrass, downy (125 g ai/ha), 50; in the assay with bromegrass, downy (250 g ai/ha) it was 95. Also, the “Plant response rating, Bromegrass, Downy” value in the assay with bromegrass, downy (setting [11]) amounted to 0. The entries for the “Cocklebur plant response rating” value in the assay on cocklebur (62 g ai/ha) and in the assay with cocklebur (250 g ai/ha) were 0 and 15, respectively. For the same compound, the “Surinam Grass plant response rating” value came to 30 with surinam grass [4] (62 g ai/ha), 100 in the assay on surinam grass [4] (125 g ai/ha) and 100 with surinam grass [4] (250 g ai/ha). Further, the “Plant response rating, Surinam Grass” value in the assay with surinam grass [4] (setting [11]) is given as 20. Moreover, the “Nightshade plant response rating” value in the assay on nightshade (62 g ai/ha) is given as 30; in the assay with nightshade (125 g ai/ha), 80; in the assay on nightshade (250 g ai/ha), 95. The “Cupgrass, Woolly plant response rating” value in the assay with cupgrass, woolly [5] (62 g ai/ha) was 55; in the assay with cupgrass, woolly [5] (125 g ai/ha), 98; in the assay on cupgrass, woolly [5] (250 g ai/ha), 100. Further, the “Plant response rating, Cupgrass, Woolly” value in the assay on cupgrass, woolly [5] (setting [11]) was found to be 40. For the same compound, the results for the “Goosegrass plant response rating” value in the assay with goosegrass [6] (62 g ai/ha), in the assay with goosegrass [6] (125 g ai/ha) and in the assay with goosegrass [6] (250 g ai/ha) were 85, 95 and 100, respectively. For the same compound, the “Plant response rating, Goosegrass” value with goosegrass [6] (setting [11]) is 75.
